Assay [1] concerns the target recombinant EsigGOBP1. In words: Fluorescence competition binding assay (FCBA) with 1-NPN probe. More on the design: species or system Endoclita signifer. The following applies: for binding affinities for EsigGOBP1 (in words): FCBA, ordered by Kd values; for Ki: calculated from IC50: Ki = [IC50]/(1 + [1-NPN]/K1-NPN); for IC50: competitive binding, 1-NPN and EsigGOBP1 both at 2 μM, ligands 2–24 μM, pH 7.4. How it is done: N-phenyl-1-naphthylamine (1-NPN) was selected for use as a selectively fluorescent probe to measure the affinity of ligand binding to recombinant EsigGOBP1 [20, 42]. Twelve volatiles (Table 1) from eucalyptus trunks and humus soil under eucalyptus plantation were collected, identified and screened using the dynamic headspace adsorption method, gas chromatograph coupled to mass selective detector, gas chromatograph electroantennal detection and Y-tube olfactometer bioassay (Table S1). […] A 2 μM solution of EsigGOBP1 was prepared in 20 mM Tris-HCl buffer (pH 7.4), and the ligands were dissolved in chromatographically pure methanol as 1 mM stock solutions. […] Intensity values corresponding to maximum fluorescence emission were plotted against free ligand concentrations to determine dissociation constants. K1-NPN values were calculated by Scatchard plots to linearize curves.

Assay [2] concerns EsigGOBP1 expression in the head of E. signifer larvae. Description: qRT-PCR expression of EsigGOBP1 in larval heads after exposure to volatiles. Type of assay: in vivo, Endoclita signifer. How it is done:
The 3rd and 5th instar larvae of E. signifer were exposed to 12 GC-EAD active volatile compounds (Table S1). The exposure method followed that of Llopis-Gimenez and Hu. Thirty-three 5th instar larvae were exposed to ten compounds and only methanol (control) with three biological replicates (50 μL of each odorant diluted to 10 g/L in methanol in a 50 mL jar for 24 h). Thereafter, the total RNA from the heads of these larvae were extracted and its concentration and purity measured. The residual genomic DNA in the total RNA was removed using DNase I (Thermo Scientific, Waltham, MA, USA) then purified RNA used to synthesize cDNA following the method of Zhang. The treatments carried out on the 5th instar larvae, were the same as applied to 3rd instar larvae (n = 27) (eight compounds, one control; three biological replicates). The sequence of the gene-specific primers of EsigGOBP1 were as follow: forward primer: 5′-[…]-3′; reverse primer: 5′-[…] TCTCGT-3′ [37]. Roche LIGHT CYCLE 480II (USA) and Genious 2X SYBR Green Fast qPCR Mix (No ROX) (No. RK21205; ABclonal, Wuhan, China) were used for a PCR reaction under a three-step amplification program. Each 20 µL real-time fluorescence quantification PCR (qRT-PCR) reaction mixture contained 10 µL of Genious 2X SYBR Green Fast qPCR Mix, […] ([…]), 2 µL of sample cDNA (2.5 ng of RNA), and […] of dH2O (sterile distilled water), with the following cycling parameters: 95 °C for 180 s, followed by 40 cycles of 95 °C for 5 s, 60 °C for 30 s, and 65 °C to 95 °C in increments of 0.5 °C for 5 s to generate melting curves. The sequences of the primers of the reference gene, GADPH were forward primer 5′-[…]-3′; reverse primer 5′-[…]-3′ [60]. The measurement of the expression of EsigGOBP1 in head, thorax and abdomen of 3rd instar larvae followed the protocol of Zhang. Each qRT-PCR reaction for each volatile exposure and tissues, was performed in three biological replicates and three technical replicates in Roche LIGHT CYCLE 480II. The expression of EsigGOBP1, from exposure to o-cymene and camphene served as the control for the 3rd and 5th instar larvae, respectively, and GADPH was used to measure the relative gene expressions by the 2^−ΔΔCT method. The 2^−ΔCT method was used to measure gene expressions in the tissues of 3rd instar larvae with 0.91 amplicons efficiencies. Differences in the expression of olfactory proteins were determined using a one-sample t-test. All analyses were implemented in SPSS Statistics 18.0, and values are presented as means ± SE.
(Quantitative PCR measures a nucleic acid by following its amplification.)

The subject of assay [3] is E. signifer larvae. The following applies: cited from earlier work; for attraction in behavior choice assays: ref [33],[34]; for influence on the behaviour of E. signifier: ref [35],[36].
[4] abbreviates: 3rd instar larvae, 24 h exposure to volatile.
Where [5] appears, read: 5th instar larvae, 24 h exposure to volatile.
Where [6] appears, read: competitive binding against 1-NPN, read-out: calculated Kd.

“Also recorded” adds a separate entry of the source. Where two headings read alike, the source gives them in different places.

In the case of `c1ccc(Nc2cccc3ccccc23)cc1` [1-NPN, N-phenyl-1-naphthylamine, reference compound], in assay [1] (binding curve and Scatchard plots, 1-NPN 2–24 μM, 2 μM EsigGOBP1, read-out: dissociation constant K1-NPN), the Kd is 3380 nM.

Consider `Cc1ccccc1C(C)C` [o-cymene], for which the figures for the “EsigGOBP1 expression vs control” value in assay [2] (setting [4]) and in assay [2] (setting [5]) were “downregulated; also recorded: extremely significantly lower” and “upregulated”, respectively. Further, the “attraction in behavior choice assays” value in assay [3] (3rd instar larvae) is given as “significantly attracted”.

Regarding `CC1=CCC2CC1C2(C)C` (stereo not drawn) [alpha-Pinene], in assay [1], the “binding affinities for EsigGOBP1 (in words)” value (“binding affinities” for short) is on record as “high binding affinities”, the inhibition constant Ki was 1240 nM and the IC50 amounted to 9860 nM. In assay [1] (setting [6]), the Kd is 1240 nM.

Regarding `CCc1ccccc1CC` [Benzene, 1,2-diethyl-], in assay [1], the “binding affinities” value is given as “high binding affinities”, the inhibitory constant (Ki) is 792 nM and the IC50 was 6300 nM. In addition, the Kd in assay [1] (setting [6]) is 790 nM. Further, in assay [2] (5th instar larvae, 24 h exposure to volatile, 1,2-diethyl-), the “EsigGOBP1 expression vs control” value was “upregulated”. The “influence on the behaviour of E. signifier” value in assay [3] is on record as “no obvious influence”.

As to `CC12CCC(CC1)C(C)(C)O2` [Eucalyptol], in assay [1], the “binding affinities” value is recorded as “high binding affinities”, the Ki is 1270 nM and the 50% inhibitory concentration (IC50) stood at 10100 nM. Besides, the Kd in assay [1] (setting [6]) is 1270 nM. For the same compound, in assay [2] (setting [4]), the “EsigGOBP1 expression vs control” value is listed as “downregulated; also recorded: significantly lower”. For the same compound, the “EsigGOBP1 expression vs control” value in assay [2] (setting [5]) is listed as “downregulated; also recorded: significantly lower”.

`C=C(C)[C@H]1CC=C(C)CC1` [D-limonene]: in assay [1], the “binding affinities” value is “high binding affinities”, the Ki was 1430 nM and the IC50 was determined as 11400 nM. Besides, in assay [1] (setting [6]), the Kd is 1430 nM.

For the compound `CCc1ccccc1C` [benzene, 1-ethyl-2-methyl-], the “EsigGOBP1 expression vs control” value in assay [2] (setting [5]) is reported as “upregulated”.

For `CCc1ccc(C(C)=O)cc1` [4-ethylacetophenone], in assay [2] (setting [4]), the “EsigGOBP1 expression vs control” value was “downregulated; also recorded: extremely significantly lower”.

Regarding `C=CC(=O)OCCCC` [Butyl acrylate], in assay [1], the “binding affinities” value was “high binding affinities”, the Ki is 901 nM and the half-inhibitory concentration (IC50) came to 7180 nM. Besides, the Kd in assay [1] (setting [6]) was 900 nM.

With `c1ccc2ccccc2c1` [Naphthalene], in assay [1], the “binding affinities” value is recorded as “low binding affinities”, the Ki was 2690 nM and the IC50 worked out at 21500 nM. The Kd in assay [1] (setting [6]) was 2690 nM. Further, in assay [2] (setting [4]), the “EsigGOBP1 expression vs control” value is on record as “upregulated”.

As for `C=C1C2CCC(C2)C1(C)C` (centres unmarked) [Camphene], in assay [1], the “binding affinities” value was “high binding affinities” and the IC50 came to 7870 nM. Besides, the Kd in assay [1] (setting [6]) was 990 nM.

Regarding `CC1=CCC2C(C1)C2(C)C` (centres unmarked) [3-carene], the “EsigGOBP1 expression vs control” value in assay [2] (setting [4]) was “downregulated; also recorded: extremely significantly lower”.

As for `C=C1CCC2CC1C2(C)C` (stereo not drawn) [β-Pinene], in assay [1], the “binding affinities” value is “high binding affinities”, the inhibition constant (Ki) was 1320 nM and the IC50 is 10500 nM. The Kd in assay [1] (setting [6]) is 1320 nM. In assay [2] (setting [5]), the “EsigGOBP1 expression vs control” value was “downregulated”. In assay [2] (5th instar larvae, 24 h exposure to volatile, listed as β-pinene), the “EsigGOBP1 expression vs control” value is given as “extremely significantly lower”. Also, the “attraction in behavior choice assays” value in assay [3] (5th instar larvae) is recorded as “significantly attracted”.

As to `Cc1cc(C)cc(C)c1` [1,3,5-trimethyl-benzen], in assay [1], the “binding affinities” value is on record as “low binding affinities” and the Ki was 4600 nM. Further, in assay [1] (setting [6]), the Kd was 4600 nM.

Turning to `CC1=CC[C@H](C(C)C)C=C1` [alpha-Phellandrene], in assay [1], the “binding affinities” value is “high binding affinities”, the Ki was 889 nM and the IC50 came out at 7080 nM. Further, the Kd in assay [1] (setting [6]) was 890 nM. Moreover, the “EsigGOBP1 expression vs control” value in assay [2] (setting [4]) is listed as “downregulated; also recorded: extremely significantly lower”. Besides, in assay [3], the “influence on the behaviour of E. signifier” value is reported as “no obvious influence”.

As to `CC(C)(O)c1ccccc1` [2-Phenyl-2-propanol], in assay [1], the “binding affinities” value was “low binding affinities”, the Ki is 2760 nM and the IC50 worked out at 22000 nM. Also, in assay [1] (setting [6]), the Kd is 2770 nM.

As a reminder, the Ki is the dissociation constant of the complex between target and ligand, obtained from inhibition or displacement. A word on the IC50: it is the concentration that inhibits the measured activity by half.
